A short description of experiment [1]: The activity of cGPK, activated by cGMP, is measured by its ability to transfer phosphate from [gamma-32P]ATP to histone.
Experiment [2] deals with Myosin light chain kinase, smooth muscle (Gallus gallus, UniProt P11799). Kind of experiment: MLCK assay. To be noted: pH 7.2; 30 °C. On the procedure:
The activity of MLCK is measured by its ability to transfer 32P from [gamma-32P]ATP to myosin light-chain.

Experiment [3] addresses Tyrosine-protein phosphatase non-receptor type 2 (Mus musculus). Kind of experiment: TPK assay. On the procedure: The activity of TPK is measured by its ability to transfer 32P from [gamma-32P]ATP to Poly(Glu,Tyr; 4:l).
The target in experiment [4] is Protein kinase C beta type (Rattus norvegicus, UniProt P68403). Kind of experiment: MLCK assay.
Protein kinase C beta type, sequence (P68403 whole entry): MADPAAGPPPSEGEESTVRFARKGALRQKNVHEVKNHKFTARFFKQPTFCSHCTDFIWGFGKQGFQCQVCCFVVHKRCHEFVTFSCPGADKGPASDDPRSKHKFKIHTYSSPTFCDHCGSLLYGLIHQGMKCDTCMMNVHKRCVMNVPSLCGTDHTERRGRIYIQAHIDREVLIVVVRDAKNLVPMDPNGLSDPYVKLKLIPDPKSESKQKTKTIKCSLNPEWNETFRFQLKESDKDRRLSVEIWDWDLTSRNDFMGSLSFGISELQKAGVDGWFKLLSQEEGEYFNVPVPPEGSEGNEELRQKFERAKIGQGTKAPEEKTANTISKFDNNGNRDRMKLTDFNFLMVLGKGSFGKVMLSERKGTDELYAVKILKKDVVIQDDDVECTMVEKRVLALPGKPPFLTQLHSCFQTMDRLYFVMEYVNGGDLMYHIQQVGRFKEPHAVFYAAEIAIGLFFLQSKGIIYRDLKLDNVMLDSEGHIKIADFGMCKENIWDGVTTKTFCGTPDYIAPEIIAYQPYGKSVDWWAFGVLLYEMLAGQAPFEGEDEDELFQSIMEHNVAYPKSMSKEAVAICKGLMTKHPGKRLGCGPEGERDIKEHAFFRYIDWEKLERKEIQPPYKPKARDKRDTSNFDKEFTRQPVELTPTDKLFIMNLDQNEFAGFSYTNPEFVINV
Experiment [5] has as its target T1, cGMP-dependent protein kinase 1 (Bos taurus, UniProt P00516).
T1 sequence (P00516 whole entry): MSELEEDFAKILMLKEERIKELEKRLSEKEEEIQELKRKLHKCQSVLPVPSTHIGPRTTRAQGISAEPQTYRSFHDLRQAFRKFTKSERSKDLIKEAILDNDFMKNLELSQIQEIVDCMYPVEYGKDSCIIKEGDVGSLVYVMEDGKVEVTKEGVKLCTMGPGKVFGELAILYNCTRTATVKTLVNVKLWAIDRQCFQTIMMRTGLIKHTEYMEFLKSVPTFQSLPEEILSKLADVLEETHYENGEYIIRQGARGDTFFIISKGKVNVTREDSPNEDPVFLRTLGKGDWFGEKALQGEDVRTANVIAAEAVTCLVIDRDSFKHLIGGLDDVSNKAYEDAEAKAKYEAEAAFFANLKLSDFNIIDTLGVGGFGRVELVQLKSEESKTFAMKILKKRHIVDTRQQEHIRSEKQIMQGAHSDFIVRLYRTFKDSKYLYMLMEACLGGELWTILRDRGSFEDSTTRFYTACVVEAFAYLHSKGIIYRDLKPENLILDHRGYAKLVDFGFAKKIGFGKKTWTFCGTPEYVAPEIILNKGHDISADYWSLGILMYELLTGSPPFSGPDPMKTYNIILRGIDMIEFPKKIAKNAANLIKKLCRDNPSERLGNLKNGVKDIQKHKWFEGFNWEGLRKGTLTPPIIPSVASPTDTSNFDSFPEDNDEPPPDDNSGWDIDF
Kind of experiment: cGPK assay. Here is the method:
The activity of cGPK, activated by cGMP, is measured by its ability to transfer phosphate from [gamma-32P]ATP to histone.

In experiment [6] the target is cAMP-dependent protein kinase catalytic subunit alpha (Bos taurus, UniProt P00517). As to the kind of experiment: PKA assay. Here is the method: The activity of PKA, activated by cAMP, is measured by its ability to transfer phosphate from [gamma-32P]ATP to histone.

Drawing on BindingDB's records for doi:10.1016/0960-894X(94)00458-R (Tumor Biology Center, 1995), this text covers IC50 for 20 compounds.

Myosin light chain kinase, smooth muscle, sequence (P11799 whole entry): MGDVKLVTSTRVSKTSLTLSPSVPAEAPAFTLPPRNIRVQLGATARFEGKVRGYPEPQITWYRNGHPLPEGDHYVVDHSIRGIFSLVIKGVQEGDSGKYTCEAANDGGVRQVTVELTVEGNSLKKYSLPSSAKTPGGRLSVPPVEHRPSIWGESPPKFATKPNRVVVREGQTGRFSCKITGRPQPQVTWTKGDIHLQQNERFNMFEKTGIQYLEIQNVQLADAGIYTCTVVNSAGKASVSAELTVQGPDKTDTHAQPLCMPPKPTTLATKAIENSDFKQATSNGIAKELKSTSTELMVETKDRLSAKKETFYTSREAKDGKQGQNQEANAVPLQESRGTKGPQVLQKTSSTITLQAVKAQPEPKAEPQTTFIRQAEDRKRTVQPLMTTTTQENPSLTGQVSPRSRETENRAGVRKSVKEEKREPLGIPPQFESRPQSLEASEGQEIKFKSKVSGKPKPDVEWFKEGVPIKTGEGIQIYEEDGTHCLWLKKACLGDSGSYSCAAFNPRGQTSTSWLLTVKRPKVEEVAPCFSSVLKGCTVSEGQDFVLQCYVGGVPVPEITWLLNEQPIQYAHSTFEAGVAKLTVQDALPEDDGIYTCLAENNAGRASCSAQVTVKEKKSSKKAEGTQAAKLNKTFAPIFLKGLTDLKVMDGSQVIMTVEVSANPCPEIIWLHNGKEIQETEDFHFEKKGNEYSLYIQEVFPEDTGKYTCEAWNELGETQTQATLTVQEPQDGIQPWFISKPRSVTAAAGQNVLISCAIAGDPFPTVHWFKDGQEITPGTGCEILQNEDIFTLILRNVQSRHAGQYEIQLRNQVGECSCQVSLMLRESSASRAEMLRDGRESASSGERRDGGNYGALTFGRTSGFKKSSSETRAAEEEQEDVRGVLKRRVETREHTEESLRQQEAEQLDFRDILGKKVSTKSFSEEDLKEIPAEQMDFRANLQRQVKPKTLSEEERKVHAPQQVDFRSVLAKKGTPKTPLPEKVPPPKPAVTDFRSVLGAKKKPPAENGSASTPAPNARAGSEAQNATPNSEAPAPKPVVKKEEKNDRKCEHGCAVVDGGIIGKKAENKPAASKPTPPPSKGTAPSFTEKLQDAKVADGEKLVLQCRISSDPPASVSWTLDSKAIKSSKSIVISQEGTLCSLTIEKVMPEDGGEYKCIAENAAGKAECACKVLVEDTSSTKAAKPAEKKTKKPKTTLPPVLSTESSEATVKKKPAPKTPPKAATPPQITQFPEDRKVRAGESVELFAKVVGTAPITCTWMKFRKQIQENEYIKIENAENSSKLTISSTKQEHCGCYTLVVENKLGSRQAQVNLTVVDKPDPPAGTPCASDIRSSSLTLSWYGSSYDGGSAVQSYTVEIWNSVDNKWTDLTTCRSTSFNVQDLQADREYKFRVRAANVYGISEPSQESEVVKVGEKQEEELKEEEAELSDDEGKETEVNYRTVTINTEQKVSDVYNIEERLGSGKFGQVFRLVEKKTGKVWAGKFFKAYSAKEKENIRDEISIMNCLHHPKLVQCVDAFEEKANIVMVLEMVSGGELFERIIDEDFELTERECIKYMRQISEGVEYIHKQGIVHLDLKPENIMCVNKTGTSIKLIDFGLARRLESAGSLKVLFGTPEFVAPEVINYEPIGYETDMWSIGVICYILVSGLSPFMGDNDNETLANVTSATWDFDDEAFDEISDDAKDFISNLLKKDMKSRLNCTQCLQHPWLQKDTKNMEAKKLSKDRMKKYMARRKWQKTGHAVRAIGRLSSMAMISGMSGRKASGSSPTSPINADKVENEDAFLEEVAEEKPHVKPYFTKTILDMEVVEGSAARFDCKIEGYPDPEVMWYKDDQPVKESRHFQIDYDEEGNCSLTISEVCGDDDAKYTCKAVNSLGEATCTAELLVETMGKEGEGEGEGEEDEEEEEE

As a reminder, the IC50 is the concentration that gives 50% inhibition. Read a low IC50 as inhibition by little substance. `COc1ccc2c(c1)c1c3c(c4c5ccccc5n(C)c4c1n2CCCC#N)C(=O)NC3=O` [3-(9-methoxy-13-methyl-5,7-dioxo-6,7,12,13-tetrahydro-5H-indolo[2,3-a]pyrrolo[3,4-c]carbazol-12-yl)propyl cyanide] showed an IC50 in experiment [1] of 32 nM.
As to `Cn1c2ccc(O)cc2c2c3c(c4c5cc(O)ccc5n(CCC#N)c4c21)CNC3=O` [3-{7,19-dihydroxy-23-methyl-14-oxo-3,13,23-triazahexacyclo[14.7.0.0^{2,10}.0^{4,9}.0^{11,15}.0^{17,22}]tricosa-1(16),2(10),4(9),5,7,11(15),17,19,21-nonaen-3-yl}propanenitrile], the half-inhibitory concentration (IC50) in experiment [1] and in experiment [2] was 30 nM in each case.
With `COc1ccc2c(c1)c1c3c(c4c5cc(OC)ccc5n(CCC#N)c4c1n2C)C(=O)NC3=O` [3-{7,19-dimethoxy-23-methyl-12,14-dioxo-3,13,23-triazahexacyclo[14.7.0.0^{2,10}.0^{4,9}.0^{11,15}.0^{17,22}]tricosa-1(16),2(10),4(9),5,7,11(15),17,19,21-nonaen-3-yl}propanenitrile], the IC50 in experiment [1] is 180 nM.
Regarding `COc1ccc2c(c1)c1c3c(c4c5cc(OC)ccc5n(CCC#N)c4c1n2C)CNC3=O` [3-{7,19-dimethoxy-23-methyl-14-oxo-3,13,23-triazahexacyclo[14.7.0.0^{2,10}.0^{4,9}.0^{11,15}.0^{17,22}]tricosa-1(16),2(10),4(9),5,7,11(15),17,19,21-nonaen-3-yl}propanenitrile], the IC50 is 1600 nM in experiment [1], above 10000 nM in experiment [3] and 1600 nM in experiment [2].
For the compound `COc1ccc2c(c1)c1c3c(c4c5ccccc5n(C)c4c1n2CCC#N)C(=O)NC3=O` [3-{7-methoxy-23-methyl-12,14-dioxo-3,13,23-triazahexacyclo[14.7.0.0^{2,10}.0^{4,9}.0^{11,15}.0^{17,22}]tricosa-1(16),2(10),4(9),5,7,11(15),17,19,21-nonaen-3-yl}propanenitrile], the figures for the IC50 in experiment [4], in experiment [1] and in experiment [2] were 16 nM, 200 nM and 49 nM, respectively.
On to `COc1ccc2c(c1)c1c3c(c4c5ccccc5n(CCC#N)c4c1n2C)C(=O)NC3=O` [3-{19-methoxy-23-methyl-12,14-dioxo-3,13,23-triazahexacyclo[14.7.0.0^{2,10}.0^{4,9}.0^{11,15}.0^{17,22}]tricosa-1(16),2(10),4(9),5,7,11(15),17,19,21-nonaen-3-yl}propanenitrile], for which the half-inhibitory concentration (IC50) in experiment [5] was above 3000 nM; in experiment [4], 2 nM; in experiment [1], 49 nM; in experiment [6] it was 400 nM; in experiment [3] it was above 10000 nM; in experiment [2], 200 nM.
For `Cn1c2ccccc2c2c3c(c4c5ccccc5n(CCC#N)c4c21)C(=O)NC3=O` [3-{23-methyl-12,14-dioxo-3,13,23-triazahexacyclo[14.7.0.0^{2,10}.0^{4,9}.0^{11,15}.0^{17,22}]tricosa-1(16),2(10),4(9),5,7,11(15),17,19,21-nonaen-3-yl}propanenitrile], the IC50 was 55 nM in experiment [1] and above 30000 nM in experiment [6].
Consider `COc1ccc2c(c1)c1c3c(c4c5ccccc5n(CCCC#N)c4c1n2C)C(=O)NC3=O` [4-{19-methoxy-23-methyl-12,14-dioxo-3,13,23-triazahexacyclo[14.7.0.0^{2,10}.0^{4,9}.0^{11,15}.0^{17,22}]tricosa-1(16),2(10),4(9),5,7,11(15),17,19,21-nonaen-3-yl}butanenitrile], for which the 50% inhibitory concentration (IC50) in experiment [5] came to 1000 nM; in experiment [4], 5 nM; in experiment [6], 200 nM; in experiment [2] it was 32 nM.
`COc1ccc2c(c1)c1c3c(c4c5ccccc5n(C)c4c1n2CC(O)CN(C)C)C(=O)NC3` (stereo unspecified) [12-(3-dimethylamino-2-hydroxypropyl)-9-methoxy-13-methyl-6,7,12,13-tetrahydro-5H-indolo[2,3-a]pyrrolo[3,4-c]carbazol-5-one] returned a concentration for half-maximal inhibition (IC50) in experiment [1] of 9200 nM.
The same measure, in the same setting: as for `COc1ccc2c(c1)c1c3c(c4c5ccccc5n(C)c4c1n2CC(O)CN(C)C)C(=O)NC3=O` (stereo unspecified) [13-(3-dimethylamino-2-hydroxypropyl)-3-methoxy-12-methyl-6,7,12,13-tetrahydro-5H-indolo[2,3-a]pyrrolo[3,4-c]carbazole-5,7-dione], the figure is 120 nM.
Consider `Cn1c2ccccc2c2c3c(c4c5ccccc5n(CCCN)c4c21)CNC3=O` [23-(3-aminopropyl)-3-methyl-3,13,23-triazahexacyclo[14.7.0.0^{2,10}.0^{4,9}.0^{11,15}.0^{17,22}]tricosa-1(16),2(10),4,6,8,11(15),17(22),18,20-nonaen-12-one], for which the 50% inhibitory concentration (IC50) in experiment [1] and in experiment [2] was 18 nM in each case.
In the case of `CN(C)CC(O)Cn1c2ccccc2c2c3c(c4c5ccccc5n(C)c4c21)C(=O)NC3=O` (stereo unspecified) [23-[3-(dimethylamino)-2-hydroxypropyl]-3-methyl-3,13,23-triazahexacyclo[14.7.0.0^{2,10}.0^{4,9}.0^{11,15}.0^{17,22}]tricosa-1(16),2(10),4,6,8,11(15),17(22),18,20-nonaene-12,14-dione], the IC50 in experiment [1] and in experiment [2] was 120 nM throughout.
On to `COc1ccc2c(c1)c1c3c(c4c5ccccc5n(CC(O)CN(C)C)c4c1n2C)CNC3=O` (stereo unspecified) [23-[3-(dimethylamino)-2-hydroxypropyl]-7-methoxy-3-methyl-3,13,23-triazahexacyclo[14.7.0.0^{2,10}.0^{4,9}.0^{11,15}.0^{17,22}]tricosa-1(16),2(10),4,6,8,11(15),17(22),18,20-nonaen-12-one], for which the IC50 in experiment [5] was 23000 nM; in experiment [4], 86 nM; in experiment [6], 15000 nM; in experiment [3], above 10000 nM; in experiment [2], 9200 nM.
As for `COc1ccc2c(c1)c1c3c(c4c5ccccc5n(CC(O)CN(C)C)c4c1n2C)C(=O)NC3=O` (stereo unspecified) [23-[3-(dimethylamino)-2-hydroxypropyl]-7-methoxy-3-methyl-3,13,23-triazahexacyclo[14.7.0.0^{2,10}.0^{4,9}.0^{11,15}.0^{17,22}]tricosa-1(16),2(10),4,6,8,11(15),17(22),18,20-nonaene-12,14-dione], the IC50 in experiment [5] was 4800 nM; in experiment [4], 4 nM; in experiment [6] it was 510 nM; in experiment [2], 120 nM.
Regarding `CN(C)CCCn1c2ccccc2c2c3c(c4c5ccccc5[nH]c4c21)C(=O)NC3` [23-[3-(dimethylamino)propyl]-3,13,23-triazahexacyclo[14.7.0.0^{2,10}.0^{4,9}.0^{11,15}.0^{17,22}]tricosa-1(16),2(10),4,6,8,11(15),17(22),18,20-nonaen-12-one], the IC50 in experiment [1] is 390 nM; in experiment [6], above 10000 nM; in experiment [2] it was 390 nM.
For the compound `CN(C)CCCn1c2ccccc2c2c3c(c4c5ccccc5n(C)c4c21)C(=O)NC3` [23-[3-(dimethylamino)propyl]-3-methyl-3,13,23-triazahexacyclo[14.7.0.0^{2,10}.0^{4,9}.0^{11,15}.0^{17,22}]tricosa-1(16),2(10),4,6,8,11(15),17(22),18,20-nonaen-12-one], the IC50 in experiment [1] and in experiment [2] was 250 nM throughout.
On to `CN(C)CCCn1c2ccc(O)cc2c2c3c(c4c5cc(O)ccc5[nH]c4c21)C(=O)NC3` [23-[3-(dimethylamino)propyl]-7,19-dihydroxy-3,13,23-triazahexacyclo[14.7.0.0^{2,10}.0^{4,9}.0^{11,15}.0^{17,22}]tricosa-1(16),2(10),4,6,8,11(15),17(22),18,20-nonaen-12-one], for which the concentration for half-maximal inhibition (IC50) in experiment [1] was found to be 310 nM; in experiment [2] it was 31 nM.
Taken in the same sequence, the figures for `COc1ccc2[nH]c3c(c4c(c5c6cc(OC)ccc6n(CCCN(C)C)c35)CNC4=O)c2c1` [23-[3-(dimethylamino)propyl]-7,19-dimethoxy-3,13,23-triazahexacyclo[14.7.0.0^{2,10}.0^{4,9}.0^{11,15}.0^{17,22}]tricosa-1(16),2(10),4,6,8,11(15),17(22),18,20-nonaen-12-one] were 220 nM and 220 nM.
As to `CN(C)CC(O)Cn1c2ccccc2c2c3c(c4c5ccccc5n(C)c4c21)C(=O)NC3` (stereo unspecified) [Indolocarbazole deriv.], the IC50 was 5500 nM in experiment [1], above 100000 nM in experiment [3] and 5500 nM in experiment [2].
Turning to `Cn1c2ccccc2c2c3c(c4c5ccccc5n(CCC#N)c4c21)CNC3=O` [Indolocarbazole deriv.], the IC50 is 5800 nM in experiment [1] and above 10000 nM in experiment [3].
